Measurements from patent US8372950B2, “IgG binding peptide” (Kagoshima University, priority 2006, dated 2013).
Positions of bridges follow the written chain, without caps; N, C: chain ends. Residues, ends and D or L forms follow the SMILES beside them. No end group written: not given here. *: point of attachment. Biotin = O=C1N[C@H]2[C@H](CS[C@H]2CCCCC(=O)*)N1; Ahx = NCCCCCC(=O)O

Columns and labels:
Fc fragment of hIgG = assay: ELISA assay of biotinylated synthetic peptides on Fc fragment; assay type: binding, human; details: biotinylated peptide, FIG. 6
Description: (§1) The binding activity of the thus obtained biotinylated synthetic peptides to human IgG was assayed by an ELISA assay. The ELISA assay was conducted basically in a manner similar to that in Example 1. Specifically, wells coated with human IgG (100 ng/50 μl/well) were blocked by the addition of 0.5% BSA. A biotinylated synthetic peptide and alkaline phosphatase-labeled streptavidin (SA-AP) were mixed in advance at a molar ratio of 4:1 and then the mixture was added to the well, followed by 1 hour of reaction. Para-nitrophenyl phosphate (Wako) was used for color development. Detection was carried out by measuring absorbance at 405 nm. As a positive control of human IgG, the Fc fragment of hIgG was used. As other control proteins, human IgA and IgE, mouse IgG, IgA, and IgE, hTF, fetal bovine serum (FBS), HSA, BSA, and gelatin were used.

human IgG [1] = assay: SPR kinetic analysis of binding between synthetic peptides and human IgG; details: for association rate constants (ka) / dissociation rate constants (kd) / Kd: biotinylated peptide immobilized on sensor chip SA, human IgG as analyte, 25° C.; for Kd: read-out: Dissociation constants (Kd)
Description: Binding between the synthetic peptide IMGpep-1, IMGpep-1E6Q, IMGpep-4, or IMGpep-4K6R and human IgG was subjected to kinetic analysis of binding using surface plasmon resonance (SPR). SPR analysis was carried out using BIAcore2000 (BIAcore) at 25° C. Necessary reagents and sensor chips were purchased from BIAcore and then used. A 50 μM solution (pH 5) of each of four biotinylated synthetic peptides (IMGpep-1, IMGpep1E6Q, IMGpep4, and IMGpep-4K6R) was injected over a sensor chip SA, so as to immobilize the peptide on the chip. The amount of each peptide to be immobilized was adjusted so that the RU (response unit) ranged from 1500 to 2000. Subsequently, human IgG (analyte) was injected at a flow rate of 10 μl/min and at various concentrations (660 nM, 330 nM, 165 nM, 82 nM, and 41 nM) through flow cells with the aforementioned sensor chips SA on which the biotinylated-peptides had been immobilized. Binding reaction between human IgG and the peptides was measured. Thereafter, washing with running buffer (HBS-T) was conducted and then dissociation reaction was measured. For washing/elution of bound analytes from the sensor chips, 0.2 M glycine-HCl buffer (pH 2.7) was used. Binding parameters were analyzed using BIA evaluation Version 3.2 software.

[2] = tested on: human IgG isotypes (hIgG1 to hIgG4); assay: ELISA assay of biotinylated synthetic peptides on human IgG isotypes; assay type: binding; details: FIG. 7
Description: as §1
Furthermore, the binding activity of the biotinylated synthetic peptides to human IgG isotypes (hIgG1 to hIgG4), was assayed similarly by an ELISA assay. As a control protein of human IgG, BSA was used.

human IgG [3] = assay: ELISA assay of biotinylated synthetic peptides on human IgG; assay type: binding; details: FIG. 6; for binding to human IgG: biotinylated peptide
Description: as §1

IgG antibody = details: literature (DeLano et al.; Dias et al.); cited from earlier work
human IgG [4] = assay: immunoprecipitation of human IgG with peptide- or phage-immobilized magnetic beads; assay type: binding; details: immobilized on magnetic beads, FIG. 9; for immunoprecipitated human IgG: western blotting
Description: The above cloned T7 phage G-1 (1.0×10^12 pfu) subjected to ultracentrifuge purification or a synthetic peptide IMGpep-1 (150 nmol) was immobilized on 3 mg of tosyl-activated M450 Dynabeads magnetic beads (Dynal) via covalent binding to the terminal amino group according to the protocols recommended by the manufacturer. The beads were blocked with a PBS solution containing 0.5% BSA and then added to 1 ml of hIgG/BSA/PBS (10 μg/ml hIgG and 1 mg/ml BSA), followed by 1 hour of reaction at room temperature while mixing the solution via stirring. Beads were washed 3 times with PBST, SDS-sample buffer was added thereto, and then SDS-PAGE fractionation was carried out. Subsequently, they were subjected to western blotting analysis using a biotinylated anti-hIgG goat polyclonal antibody (Goat Anti-hIgG-pAb-biotin; Pharmingen) and SA-HRP, and then human IgG immunoprecipitated by binding to beads was detected.
Furthermore, immunoprecipitation reaction was similarly carried out using phage clones G-1 415 or IMGpep-2 instead of phage G-1 or IMGpep-1 to detect human IgG. Here, the phage clone G-1 415 (Novagen) is a phage displaying G-1 peptide at all the 415 G10 proteins composing the capsid of T7 phage. Moreover, immunoprecipitation reaction and detection were similarly carried out using an anti-hIgG goat (Fab′)2 fragment, wild-type T7 phage, and BSA, as a control of phage G-1 or IMGpep-1.

human IgG MRA = biological target: T1, human IgG MRA (Homo sapiens, UniProt P01857); assay: immunoprecipitation of MRA fractions with IMGpep-4K6R peptide; assay type: binding
T1 construct: purchased Chugai Pharmaceutical
T1 sequence (P01857 1-330 isoform P01857-1, other chains not shown): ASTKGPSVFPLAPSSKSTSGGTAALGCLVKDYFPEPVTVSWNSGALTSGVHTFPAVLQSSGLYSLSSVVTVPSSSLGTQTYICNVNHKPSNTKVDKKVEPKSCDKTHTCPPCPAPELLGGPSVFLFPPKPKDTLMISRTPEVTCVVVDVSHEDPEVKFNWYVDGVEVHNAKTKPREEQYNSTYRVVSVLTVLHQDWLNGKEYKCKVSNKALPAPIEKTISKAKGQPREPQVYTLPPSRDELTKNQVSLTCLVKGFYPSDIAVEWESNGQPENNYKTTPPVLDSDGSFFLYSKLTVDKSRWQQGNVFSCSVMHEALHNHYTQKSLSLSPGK
Description: An immunoprecipitation experiment using an IMGpep-4K6R peptide was conducted by a method similar to that employed in Example 8 for each of an untreated MRA sample, an acid-treated MRA sample (acid treated for 10 minutes at pH 2.2 and 4° C.), a flow-through fraction obtained by passing an acid-treated MRA sample through a biotinylated IMGPep-4K6R peptide-immobilized column, and a purified acid-denatured MRA sample (an adsorbed fraction obtained by passing a human IgG sample subjected to 10 minutes of acid treatment at pH 2.2 and 4° C. through an IMGpep-4K6R peptide-immobilized column). IgG precipitated with the peptide immobilized on magnetic beads was subjected to 12.5% SDS-PAGE and then to CBB staining, and then observed.

anti-HER2 human IgG = biological target: T2, anti-HER2 human IgG (Homo sapiens, UniProt P01857); assay: separation on IMGpep-4K6R-immobilized column; assay type: binding; details: untreated anti-HER2 human IgG sample
T2 construct: purchased Herceptin
T2 sequence (P01857 1-330 isoform P01857-1, other chains not shown): as above
Description: Moreover, a biotinylated IMGPep-4K6R peptide (biotin-spacer-[…] (SEQ ID NO: 11)) solution (500 μM, 1 ml) was injected to a HiTrap Streptavidin HP column (GE Healthcare) to prepare the column in which IMGPep-4K6R was immobilized. The antibody sample was injected at a flow rate of 0.4 ml/min to the IMGPep-4K6R-immobilized column. Gradient elution was carried out using from 20 mM phosphate buffered saline (PBS, pH 7.0) containing 0.1 M NaCl to 0.1M glycine-HCl (pH 2.5) containing 0.1 M NaCl.

human MRA (IgG) = biological target: T3, human MRA (IgG) (Homo sapiens, UniProt P01857); assay: dot blotting detection of human MRA (IgG) on nitrocellulose membranes; assay type: binding
T3 construct: purchased Chugai Pharmaceutical
T3 sequence (P01857 1-330 isoform P01857-1, other chains not shown): as above
Description: Specifically, acid-treated human MRA (IgG) and untreated human MRA (IgG) were spotted on nitrocellulose membranes in an amount of 1.5 ng, 3 ng, 6 ng, 12.5 ng, 25 ng, 50 ng, and 100 ng per spot. The membranes were dried for 5 minutes and then 0.5% BSA was added for blocking for 2 hours at room temperature. Here, acid-treated human MRA was prepared by adding 10 μl of 1 M glycine-HCl (pH 2.8) to 100 μl of humanized anti-human IL-6 receptor IgG antibody (MRA) (2000 μg/ml, PBS solution), carrying out incubation at 40° C. for 10 minutes, and then neutralizing it by the addition of 30 μl of 1 M Tris-HCl (pH 8.7).
The mixture was added to the membranes blocked as described above, followed by 1 hour of reaction. After 3 times of washing with PBS containing 0.1% Tween20, a chemiluminescence reagent (Chemi-Lumi One, Nakalai Tesque) was added. Images were analyzed for detection using a LAS-1000 Image Analyzer (Fuji Film).

association rate constants (ka) (human IgG [1]) [M⁻¹ s⁻¹]	dissociation rate constants (kd) (human IgG [1]) [s⁻¹]	Kd (human IgG [1]) [nM]	binding activity to human IgG1, IgG2, IgG3, and IgG4 [2]	binding to human IgG (human IgG [3])	Compound	also measured
14000	0.00041	28	strong binding activity	specifically bound to human IgG	CC(C)C[C@@H]1NC(=O)CNC(=O)[C@H](Cc2c[nH]c3ccccc23)NC(=O)[C@H](C)NC(=O)[C@H](CCCCN)NC(=O)[C@@H]2CCCN2C(=O)[C@H](Cc2c[nH]c3ccccc23)NC(=O)[C@H](Cc2ccc(O)cc2)NC(=O)CNC(=O)[C@H]([C@@H](C)O)NC(=O)[C@@H](NC(=O)CNC(=O)CCCCCNC(=O)CCCC[C@@H]2SC[C@@H]3NC(=O)N[C@@H]32)CSSC[C@@H](C(=O)NCC(=O)O)NC1=O [IMGpep-4] ({Biotin-Ahx}-GCTGYWPKAWGLCG-OH; disulfide 2-13)	binding to the Fc fragment of human IgG (Fc fragment of hIgG): bound to the Fc fragment of human IgG
15000	0.00031	21	strong binding activity		CC(C)C[C@@H]1NC(=O)CNC(=O)[C@H](Cc2c[nH]c3ccccc23)NC(=O)[C@H](CCC(N)=O)NC(=O)[C@H](CO)NC(=O)[C@H](CCCNC(=N)N)NC(=O)[C@H](Cc2c[nH]c3ccccc23)NC(=O)[C@H](Cc2ccc(O)cc2)NC(=O)CNC(=O)[C@@H](NC(=O)CNC(=O)CCCCCNC(=O)CCCC[C@@H]2SC[C@@H]3NC(=O)N[C@@H]32)CSSC[C@@H](C(=O)NCC(=O)O)NC1=O [IMGpep-1E6Q] ({Biotin-Ahx}-GCGYWRSQWGLCG-OH; disulfide 2-12)	binding activity to human IgG1 to IgG4 relative to IMGpep-1 and IMGpep-4 [2]: increase to a greater extent; binding activity compared with the original peptides IMGpep-1 and IMGpep-4 (human IgG [3]): significantly and drastically increased
					DCAWHLGELVWCT [Fc-III]	Kd (IgG antibody): 185 nM
20000	0.00034	17	strong binding activity	specifically bound to human IgG	CC(C)C[C@@H]1NC(=O)CNC(=O)[C@H](Cc2c[nH]c3ccccc23)NC(=O)[C@H](CCC(=O)O)NC(=O)[C@H](CO)NC(=O)[C@H](CCCNC(=N)N)NC(=O)[C@H](Cc2c[nH]c3ccccc23)NC(=O)[C@H](Cc2ccc(O)cc2)NC(=O)CNC(=O)[C@@H](NC(=O)CNC(=O)CCCCCNC(=O)CCCC[C@@H]2SC[C@@H]3NC(=O)N[C@@H]32)CSSC[C@@H](C(=O)NCC(=O)O)NC1=O [IMGpep-1] ({Biotin-Ahx}-GCGYWRSEWGLCG-OH; disulfide 2-12)	binding to the Fc fragment of human IgG (Fc fragment of hIgG): bound to the Fc fragment of human IgG; human IgG trapping efficiency compared with IMGpep-2 (human IgG [4]): clearly higher; immunoprecipitated human IgG (human IgG [4]): clearly observed
					GCTGFWEREWGLCG [IMGpep-2]	immunoprecipitated human IgG (human IgG [4]): clearly observed
16000	0.00038	24	strong binding activity		CC(C)C[C@@H]1NC(=O)CNC(=O)[C@H](Cc2c[nH]c3ccccc23)NC(=O)[C@H](C)NC(=O)[C@H](CCCNC(=N)N)NC(=O)[C@@H]2CCCN2C(=O)[C@H](Cc2c[nH]c3ccccc23)NC(=O)[C@H](Cc2ccc(O)cc2)NC(=O)CNC(=O)[C@H]([C@@H](C)O)NC(=O)[C@@H](NC(=O)CNC(=O)CCCCCNC(=O)CCCC[C@@H]2SC[C@@H]3NC(=O)N[C@@H]32)CSSC[C@@H](C(=O)NCC(=O)O)NC1=O [IMGpep-4K6R]	immunoprecipitation of MRA antibody (human IgG MRA; flow-through fraction of acid-treated MRA, lane 4): never observed; immunoprecipitation of MRA antibody (human IgG MRA; untreated MRA, lane 1): not immunoprecipitated; behaviour of IgG on the column (anti-HER2 human IgG): passed through; binding activity to human IgG1 to IgG4 relative to IMGpep-1 and IMGpep-4 [2]: increase to a greater extent; antibody sample sufficiently detected (human MRA (IgG); acid-treated MRA (pH 2.8, 40° C., 10 minutes), K6R(A)): ≤ 1.5 ng/mL; IgG-detection sensitivity and intensity after acid treatment (human MRA (IgG); acid-treated MRA, K6R(A)): greatly enhanced; lowest spot of untreated human MRA (IgG) detected (human MRA (IgG); untreated MRA, K6R(N)): ≤ 1.5 ng/mL; overall signal intensity of the detected spots (human MRA (IgG); untreated MRA, K6R(N)): significantly weak; binding activity compared with the original peptides IMGpep-1 and IMGpep-4 (human IgG [3]): significantly and drastically increased

Compound	association rate constants (ka) (human IgG [1]) [M⁻¹ s⁻¹]	dissociation rate constants (kd) (human IgG [1]) [s⁻¹]	Kd (human IgG [1]) [nM]	binding activity to human IgG1, IgG2, IgG3, and IgG4 [2]	binding to human IgG (human IgG [3])	also measured
GSGYWRSEWGLSG ({Biotin-Ahx}-GSGYWRSEWGLSG) [IMGpep-1CS]				almost completely lose its binding activity	almost lose the binding activity	increased response signal due to the binding (human IgG [1]; control ligand immobilized, human IgG injected): never observed; detection of spots of untreated human MRA (IgG) (human MRA (IgG); untreated MRA, CS(N)): could not detect any spots
